The structures appear in SMILES notation. Like-named read-outs stand apart in the source and are kept apart here.

This is an account of results in US9783539B2, “Indoloquinolone compounds as anaplastic lymphoma kinase (ALK) inhibitors” (Jiangsu Ascentage Biomed Development Inc., priority 2014, dated 2017).

Data set [1] has as its system H3122 non-small cell lung cancer cell line harboring the EML4-ALK fusion gene. Kind of data set: 4-day cell viability assay (WST), H3122. It is filed as cell-based. As to conditions: Homo sapiens, NCI-H3122, 96 h, 4 days, read-out: IC50 (nM) in Inhibition of Tumor Cell Growth H3122 Cell line. How it is done:
(§1) The effect of compounds on cell viability was determined in a 4-day proliferation assay. Cells were maintained in RPMI1640 culture medium with 10% FBS at 37° C. and an atmosphere of 5% CO2. […] Cells were seeded in 96-well plates at a density of 3,000-10,000 cells/well in 75 μl of culture medium. Compounds were serially diluted in the appropriate medium, and 75 μl of the diluted compounds were added to the appropriate wells of the cell plate. After the addition of compounds, the cells were incubated at 37° C. in an atmosphere of 5% CO2 for 4 days. Cell viability was determined using the CellTiter-Glo® Luminescent Cell Viability Assay Kit (Promega, Madison, Wis.) (for KARPAS-299 cells) or WST (2-(2-methoxy-4-nitrophenyl)-3-(4-nitrophenyl)-5-(2,4-disulfophenyl)-2H-tetrazolium, monosodium salt) Cell Counting-8 Kit (Dojindo Molecular Technologies, Inc., Rockville, Md.) (for H3122 cells) according to the manufacturers' instructions.
For WST assay, WST-8 reagent was added to each well at a final concentration of 10% (v/v), and then the plates were incubated at 37° C. for 1-2 hours for color development. The absorbance was measured at 450 nm using a SPECTRAmax PLUS plate reader (Molecular Devices, Sunnyvale, Calif.). The readings were normalized to the DMSO-treated cells and the half maximal inhibitory concentration (IC50) was calculated by nonlinear regression analysis using the GraphPad Prism 5 software (GraphPad Software, La Jolla, Calif.).
Cells were treated for four days and cell growth was determined using a WST assay.

Data set [2] addresses wild-type human ALK protein (cytoplasmic domain, amino acid 1058-1620, GST-fusion) (Homo sapiens, UniProt Q9UM73). Kind of data set: biochemical. Conditions: 100 μM ATP.
Experimental: (§2) Kinase activities of all enzymes were assessed using a Lance TR-FRET assay kit from Perkin Elmer Life Sciences (Waltham, Mass.). 2.5 μL of compound solution and 5 μL of protein solution were added into a black low volume 384 well microtiter plate which was incubated for 15 minutes with gentle shaking at room temperature, followed by adding 2.5 μL of fluorescently labeled peptide substrate (Ulight-[sequence]) and ATP mixture solution. The kinase reaction was performed in 50 mM HEPES (pH 7.5) with 1 mM EGTA, 1 mM MgCl2, and 2 mM DTT, 0.01% Tween-20 added right before the assay. […] The reaction was allowed to perform for 90 minutes in dark with gentle shaking at room temperature after which 10 μL of 20 mM EDTA and 2 nM Eu-W1024 anti-phosphotyrosine antibody (PT66) mixture solution in the detection buffer from the manufacturer was added to terminate the reaction and detect the phosphorylation of the peptide substrate. Final mixture was incubated in the dark for 1 hour before the plate was read on a Tecan Infinite M-1000 multi-mode plate reader (Tecan, Durham N.C.) with an excitation wavelength of 320 nm.
Data set [3] relates to Kappas-299 cells containing NPM-ALK fusion protein. Kind of data set: 4-day cell viability assay (CellTiter-Glo), Kappas-299. It is filed as cell-based. Conditions: NPM-ALK, 96 h, inhibition of cell growth, 4 days, multiple values from independent experiments. Here is the method: as §1
For CellTiter-Glo assay, 100 μl of CellTiter-Glo® Reagent was added to each well, and then the plates were incubated at room temperature for 10-20 minutes. The luminescent signal was measured using a Tecan Infinite M1000 multimode microplate reader (Tecan, Morrisville, N.C.). The readings were normalized to the DMSO-treated cells and the IC50 was calculated by nonlinear regression analysis using the GraphPad Prism 5 software.
Cells were treated for four days and cell growth was determined using a CellTiter-Glo assay.

A short description of data set [4]: Pharmacokinetic parameters in SD rats, IV and PO. More on the design: AUC(0-t): concentration or dose not given beside the values. Conditions: Sprague-Dawley (SD), rat, in vivo; for bioavailability: po, read-out: Oral Bioavailability (F). The text has this: The pharmacokinetic (PK) parameters in SD rats for selected compounds with intravenous (IV) and oral (PO) administrations are provided in the following table (Table 5).

The target in data set [5] is ALK mutant (S1206Y) (Homo sapiens, UniProt Q9UM73, S1206Y). Kind of data set: biochemical.
Experimental: as §2
Data set [6] deals with ALK mutant (G1269A) (Homo sapiens, UniProt Q9UM73, G1269A). Kind of data set: biochemical. As to conditions: 100 μM ATP.
Experimental: as §2
Where [7] appears, read: intravenous, read-out: AUC0-t IV.
The mark [8] stands for this setting: intravenous, read-out: t1/2 IV (converted).
Setting [9] is: oral, read-out: t1/2 PO (converted).

Sequence of wild-type human ALK protein (cytoplasmic domain, amino acid 1058-1620, GST-fusion) (Q9UM73 1058-1620): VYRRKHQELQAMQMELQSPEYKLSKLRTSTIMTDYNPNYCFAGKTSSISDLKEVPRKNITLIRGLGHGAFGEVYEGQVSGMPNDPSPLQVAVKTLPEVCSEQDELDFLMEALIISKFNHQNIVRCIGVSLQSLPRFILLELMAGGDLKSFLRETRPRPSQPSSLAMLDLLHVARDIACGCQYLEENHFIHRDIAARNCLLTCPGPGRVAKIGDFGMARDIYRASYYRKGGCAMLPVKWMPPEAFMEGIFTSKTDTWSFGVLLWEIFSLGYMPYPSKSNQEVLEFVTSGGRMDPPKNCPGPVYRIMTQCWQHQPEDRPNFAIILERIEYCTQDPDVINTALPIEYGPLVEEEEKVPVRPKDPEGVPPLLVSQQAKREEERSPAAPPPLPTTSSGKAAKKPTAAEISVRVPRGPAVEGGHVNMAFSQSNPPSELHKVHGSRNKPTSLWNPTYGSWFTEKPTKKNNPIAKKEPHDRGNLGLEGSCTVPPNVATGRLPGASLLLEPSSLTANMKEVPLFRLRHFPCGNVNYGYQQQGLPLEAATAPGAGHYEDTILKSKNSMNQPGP
Sequence of ALK mutant (G1269A) (Q9UM73 19-1620 G1269A): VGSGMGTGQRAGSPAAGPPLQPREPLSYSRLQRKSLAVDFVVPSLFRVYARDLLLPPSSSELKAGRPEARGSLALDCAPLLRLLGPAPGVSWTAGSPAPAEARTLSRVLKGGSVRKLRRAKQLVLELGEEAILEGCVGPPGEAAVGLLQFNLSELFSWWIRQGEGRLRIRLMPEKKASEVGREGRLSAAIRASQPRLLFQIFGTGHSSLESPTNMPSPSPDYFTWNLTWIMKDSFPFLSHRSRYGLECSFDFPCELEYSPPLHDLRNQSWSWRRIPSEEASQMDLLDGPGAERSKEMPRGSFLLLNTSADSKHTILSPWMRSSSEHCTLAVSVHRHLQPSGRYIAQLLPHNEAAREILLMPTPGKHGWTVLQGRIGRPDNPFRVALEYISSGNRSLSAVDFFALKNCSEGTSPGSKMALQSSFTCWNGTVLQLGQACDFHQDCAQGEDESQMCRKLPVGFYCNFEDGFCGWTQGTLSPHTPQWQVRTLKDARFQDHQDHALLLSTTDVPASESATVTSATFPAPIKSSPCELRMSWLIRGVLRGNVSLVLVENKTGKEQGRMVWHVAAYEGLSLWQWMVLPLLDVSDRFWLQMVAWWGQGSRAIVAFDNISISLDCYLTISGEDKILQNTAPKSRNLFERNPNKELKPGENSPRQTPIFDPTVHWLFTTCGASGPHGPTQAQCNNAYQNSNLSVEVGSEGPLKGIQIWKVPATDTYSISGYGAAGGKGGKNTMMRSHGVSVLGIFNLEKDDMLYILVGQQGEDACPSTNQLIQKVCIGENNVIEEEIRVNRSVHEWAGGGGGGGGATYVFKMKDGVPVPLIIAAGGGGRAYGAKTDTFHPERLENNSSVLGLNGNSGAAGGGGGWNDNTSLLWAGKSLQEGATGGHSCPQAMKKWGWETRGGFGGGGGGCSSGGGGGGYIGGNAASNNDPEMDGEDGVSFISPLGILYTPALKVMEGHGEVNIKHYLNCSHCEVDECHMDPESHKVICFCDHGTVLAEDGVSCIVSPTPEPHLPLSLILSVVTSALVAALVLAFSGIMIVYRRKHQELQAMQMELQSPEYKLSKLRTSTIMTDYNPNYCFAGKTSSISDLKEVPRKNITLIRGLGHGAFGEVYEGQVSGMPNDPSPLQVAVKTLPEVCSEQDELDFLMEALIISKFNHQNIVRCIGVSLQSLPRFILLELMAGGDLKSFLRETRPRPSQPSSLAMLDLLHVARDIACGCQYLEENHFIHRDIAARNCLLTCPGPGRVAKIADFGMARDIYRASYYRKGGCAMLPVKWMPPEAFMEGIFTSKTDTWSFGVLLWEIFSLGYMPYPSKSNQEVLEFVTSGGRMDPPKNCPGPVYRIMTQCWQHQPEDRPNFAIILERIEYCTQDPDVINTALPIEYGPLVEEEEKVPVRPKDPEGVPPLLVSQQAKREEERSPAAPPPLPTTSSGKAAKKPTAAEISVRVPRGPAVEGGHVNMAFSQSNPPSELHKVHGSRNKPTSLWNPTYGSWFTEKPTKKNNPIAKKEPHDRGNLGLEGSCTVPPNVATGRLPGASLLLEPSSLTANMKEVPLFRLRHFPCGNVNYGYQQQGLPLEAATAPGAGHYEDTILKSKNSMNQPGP
Sequence of ALK mutant (S1206Y) (Q9UM73 19-1620 S1206Y): as the sequence (Q9UM73 19-1620 G1269A) above, with S1188Y, A1251G counted along it

`COc1cc2c(=O)c3c4ccc(C#N)cc4[nH]c3n(C3CCC3)c2c(F)c1N1CCC(N2CCOCC2)CC1` [ALK-74, 5-Cyclobutyl-4-fluoro-2-methoxy-3-(4-morpholinopiperidin-1-yl)-11-oxo-6,11-dihydro-5H-indolo[2,3-b]quinoline-8-carbonitrile]: the IC50 in data set [1] was determined as 84 nM; in data set [2] (ALK IC50, wild-type ALK), 8.4 nM; in data set [3], 98 nM.

Regarding `CCOc1cc2c(=O)c3c4ccc(C#N)cc4[nH]c3n(C(C)C)c2c(F)c1N1CCN(C)CC1` [ALK-83, 2-Ethoxy-4-fluoro-5-isopropyl-3-(4-methylpiperazin-1-yl)-11-oxo-6,11-dihydro-5H-indolo[2,3-b]quinoline-8-carbonitrile], the IC50 is 8.8 nM in data set [1]; 2 nM in data set [2] (ALK IC50, wild-type ALK); 21 nM in data set [3]. For the same molecule, the AUC(0-t) amounted to 1100 ng·h/mL in data set [4] (setting [7]) and 4430 ng·h/mL in data set [4] (oral, read-out: AUC0-t PO). Besides, the Cmax came out at 346 ng/mL in data set [4] (intravenous, read-out: Cmax IV) and 548 ng/mL in data set [4] (oral, read-out: Cmax PO). The Tmax in data set [4] (intravenous, read-out: Tmax IV) worked out at 0.083 h; in data set [4] (oral, read-out: Tmax PO), 4 h. Also, the half-life in data set [4] (setting [8]) is 5.24 h; in data set [4] (setting [9]) it was 4.1 h. For the same molecule, in data set [4], the bioavailability was 78.8%.

As for `CCc1cc2c(=O)c3c4ccc(C#N)cc4[nH]c3n(C(C)C)c2cc1C1CCN(C)CC1` [CJ-2217, 2-Ethyl-5-isopropyl-3-(1-methylpiperidin-4-yl)-11-oxo-6,11-dihydro-5H-indolo[2,3-b]quinoline-8-carbonitrile], the IC50 in data set [1] was found to be 17 ± 8 nM; in data set [2] (ALK IC50, wild-type ALK), 0.52 nM; in data set [3], 14 nM.

In the case of `CCc1cc2c(=O)c3c4ccc(C#N)cc4[nH]c3n(C(C)C)c2cc1N1CCN(C(C)C)CC1` [ALK-80, 2-Ethyl-5-isopropyl-3-(4-isopropylpiperazin-1-yl)-11-oxo-6,11-dihydro-5H-indolo[2,3-b]quinoline-8-carbonitrile], the IC50 in data set [1] is 3 ± 1 nM; in data set [2] (ALK IC50, wild-type ALK), 0.22 nM; in data set [3], 7.6 nM.

Turning to `C#Cc1cc2c(=O)c3c4ccc(C#N)cc4[nH]c3n(C3CCC3)c2cc1N1CCN(C)CC1` [ALK-72, 5-Cyclobutyl-2-ethynyl-3-(4-methylpiperazin-1-yl)-11-oxo-6,11-dihydro-5H-indolo[2,3-b]quinoline-8-carbonitrile], the IC50 came out at 0.67 nM in data set [2] (ALK IC50, wild-type ALK); 0.67 nM in data set [2] (IC50 ALK Wild-type, Table 2, wild-type ALK); 2.8 nM in data set [5]; 2.4 nM in data set [6]; 52 nM in data set [3].

With `CC(C)Oc1cc2c(=O)c3c4ccc(C#N)cc4[nH]c3n(C(C)C)c2c(F)c1N1CCC(N2CCOCC2)CC1` [ALK-85, 4-Fluoro-2-isopropoxy-5-isopropyl-3-(4-morpholinopiperidin-1-yl)-11-oxo-6,11-dihydro-5H-indolo[2,3-b]quinoline-8-carbonitrile], the IC50 in data set [1] is 148 ± 26 nM; in data set [2] (ALK IC50, wild-type ALK) it was 22.9 nM; in data set [3], 66 nM.

Turning to `CCc1cc2c(=O)c3c4ccc(C#N)cc4[nH]c3n(C(C)C)c2cc1C1CCN(C2COC2)CC1` [CJ-2238, 2-Ethyl-5-isopropyl-3-(1-(oxetan-3-yl)piperidin-4-yl)-11-oxo-6,11-dihydro-5H-indolo[2,3-b]quinoline-8-carbonitrile], the IC50 in data set [1] was determined as 1040 nM; in data set [2] (ALK IC50, wild-type ALK), 2.6 nM; in data set [3], 231 nM.

`CCc1cc2c(=O)c3c4ccc(C#N)cc4[nH]c3n(C(C)C)c2cc1C1CCN(C(C)C)CC1` [CJ-2239, 2-Ethyl-5-isopropyl-3-(1-isopropylpiperidin-4-yl)-11-oxo-6,11-dihydro-5H-indolo[2,3-b]quinoline-8-carbonitrile]: the IC50 came out at 36 ± 13 nM in data set [1]; 0.77 nM in data set [2] (ALK IC50, wild-type ALK); 16 nM in data set [3].

Turning to `COc1cc2c(=O)c3c4ccc(C#N)cc4[nH]c3n(C3CCC3)c2c(F)c1N1CCN(C)CC1` [ALK-75, 5-Cyclobutyl-4-fluoro-2-methoxy-3-(4-methylpiperazin-1-yl)-11-oxo-6,11-dihydro-5H-indolo[2,3-b]quinoline-8-carbonitrile], the IC50 in data set [1] was found to be 35.9 nM; in data set [2] (ALK IC50, wild-type ALK), 3.6 nM; in data set [3] it was 22 nM.

Regarding `CCc1cc2c(=O)c3c4ccc(C#N)cc4[nH]c3n(C(C)C)c2cc1N1CCC(N2CCN(C)CC2)CC1` [ALK-79, 2-Ethyl-5-isopropyl-3-(4-(4-methylpiperazin-1-yl)piperidin-1-yl)-11-oxo-6,11-dihydro-5H-indolo[2,3-b]quinoline-8-carbonitrile], the IC50 was found to be 2 ± 1 nM in data set [1]; 0.11 nM in data set [2] (ALK IC50, wild-type ALK); 9.6 nM in data set [3].

Take `CC(C)Oc1cc2c(=O)c3c4ccc(C#N)cc4[nH]c3n(C(C)C)c2c(F)c1N1CCN(C)CC1` [ALK-86, 4-Fluoro-2-isopropoxy-5-isopropyl-3-(4-methylpiperazin-1-yl)-11-oxo-6,11-dihydro-5H-indolo[2,3-b]quinoline-8-carbonitrile]: the IC50 was 161 nM in data set [1]; 5.8 nM in data set [2] (ALK IC50, wild-type ALK); 31 nM in data set [3]. For the same molecule, the AUC(0-t) in data set [4] (setting [7]) came out at 1080 ng·h/mL; in data set [4] (oral, read-out: AUC0-t PO), 2440 ng·h/mL. The Cmax is 261 ng/mL in data set [4] (intravenous, read-out: Cmax IV) and 258 ng/mL in data set [4] (oral, read-out: Cmax PO). Besides, the Tmax in data set [4] (intravenous, read-out: Tmax IV) came to 0.083 h; in data set [4] (oral, read-out: Tmax PO), 4 h. For the same molecule, the half-life in data set [4] (setting [8]) was 5.23 h; in data set [4] (setting [9]), 5.11 h. Also, the bioavailability in data set [4] was 44.6%.

Regarding `CCc1cc2c(=O)c3c4ccc(C#N)cc4[nH]c3n(C(C)C)c2cc1N1CCN(C2COC2)CC1` [ALK-77, 2-Ethyl-5-isopropyl-3-(4-(oxetan-3-yl)piperazin-1-yl)-11-oxo-6,11-dihydro-5H-indolo[2,3-b]quinoline-8-carbonitrile], the IC50 in data set [1] came out at 25.9 nM; in data set [2] (ALK IC50, wild-type ALK), 1.1 nM; in data set [3] it was 31 nM.

With `CCc1cc2c(=O)c3c4ccc(C#N)cc4[nH]c3n(C(C)C)c2cc1C1CCN(CCO)CC1` [CJ-2241, 2-Ethyl-3-(1-(2-hydroxyethyl)piperidin-4-yl)-5-isopropyl-11-oxo-6,11-dihydro-5H-indolo[2,3-b]quinoline-8-carbonitrile], the IC50 turned out to be 154 nM in data set [1]; 0.32 nM in data set [2] (ALK IC50, wild-type ALK); 292 nM in data set [3].

With `CCOc1cc2c(=O)c3c4ccc(C#N)cc4[nH]c3n(C(C)C)c2c(F)c1N1CCC(N2CCOCC2)CC1` [ALK-76, 2-Ethoxy-4-fluoro-5-isopropyl-3-(4-morpholinopiperidin-1-yl)-11-oxo-6,11-dihydro-5H-indolo[2,3-b]quinoline-8-carbonitrile], the IC50 in data set [1] turned out to be 85 ± 11 nM; in data set [2] (ALK IC50, wild-type ALK), 2.5 nM; in data set [3] it was 35 nM.

As for `CCc1cc2c(=O)c3c4ccc(C#N)cc4[nH]c3n(C(C)C)c2cc1N1CCC(N2CCOCC2)CC1` [ALK-78, 2-Ethyl-5-isopropyl-3-(4-morpholinopiperidin-1-yl)-11-oxo-6,11-dihydro-5H-indolo[2,3-b]quinoline-8-carbonitrile], the IC50 in data set [1] came to 13.1 nM; in data set [2] (ALK IC50, wild-type ALK), 0.7 nM; in data set [3] it was 25 nM.

Turning to `CCc1cc2c(=O)c3c4ccc(C#N)cc4[nH]c3n(C(C)C)c2cc1C1CCN(C2CCOCC2)CC1` [CJ-2240, 2-Ethyl-5-isopropyl-11-oxo-3-(1-(tetrahydro-2H-pyran-4-yl)piperidin-4-yl)-6,11-dihydro-5H-indolo[2,3-b]quinoline-8-carbonitrile], the IC50 in data set [1] worked out at 33 ± 12 nM; in data set [2] (ALK IC50, wild-type ALK), 0.78 nM; in data set [3], 35 nM.
